Consider 2 compounds from publication PMC5668434, “Modulation of telomere protection by the PI3K/AKT pathway” (Nature Communications, 2017).

One assay concerns the target T1, mTOR (FRAP1) (Homo sapiens, UniProt P42345).
T1 construct: purchased ThermoFisher PV4753
Nature of the assay: mTOR biochemical assay (LanthaScreen).

In assay [1] the test system is TRF1 protein in CHA 9-3 nuclear extracts. In words: Western blot of nuclear TRF1 in CHA 9-3 cells. The class given is cell-based, mouse. The settings on record: 10 μM. On the procedure:
Blots were incubated with the primary antibodies anti-TRF1 1:500 (home-made monoclonal Rat, CNIO; TRF-78, ABCAM, ab10579) and with anti-SMC1 1:2000 (Bethyl Laboratories #A300-055A) as loading control. For nuclear protein preparation, the Nuclear/Cytosol Fractionation Kit (K266-100, BioVision) was used according to the manufactures protocol.
In general terms: In western blotting, separated proteins are transferred to a membrane and probed.

For assay [2], the system named is p-AKT S473 in CHA-9.3 mouse lung cancer cell line. In words: Western blot of AKT phosphorylation at Ser473 in CHA-9.3 cells. The class given is cell-based. As to conditions: for p-AKT S473 inhibition (in words): 10 μM time course; for inhibition at 10 µM: Mus musculus. Here is the method:
These new chemical probes were prepared by replacement of a single key oxygen atom from the morpholine moiety by a methylene group, generating the piperidine derivatives ETP-51259 and ETP-50952 (Fig. 1a). To assess their PI3K cellular activity, we measured phosphorylation of residue Ser473 in AKT (p-AKT S473), a PI3K downstream target[61]–[63], by western blot analysis. To this end, we used the CHA-9.3 mouse lung cancer cell line previously generated by us[39]. […] Of note, the inhibitory activity of ETP-47037 was more prolonged than that of ETP-47228. Thus, ETP-47037 mediated p-AKT S473 inhibition was maintained during the 24-hour treatment while the ETP-47228 mediated inhibition decreased 35% after 24 h as compared to 1-h treatment but still was able to inhibit the pathway above 50% (Fig. 1c).
For detection of AKT, PRAS40 (T246) and pS6 in CHA9.3 cells, untreated control (DMSO) or treated with the indicated inhibitors, were lysed in RIPA buffer supplemented with 100 mM pefablock (Roche Diagnostics) and protease inhibitor cocktail (Roche Molecular Biochemicals). Proteins were resolved on 10% SDS-PAGE, and transferred to nitrocellulose membrane (Amersham^TM Protan^TM 0.2 µm nNC). Membranes were incubated with antibodies against phospho-AKT (Ser473), AKT, phospo-S6 (Ser 235/236), and S6Ribosomal from Cell Signaling, phospo-PRAS40 (Thr246) from BIOSURCE and anti α-tubulin form Sigma, overnight at 4 °C. After washing, blots were incubated with secondary antibody: Alexa Fluor 680 goat anti-rabbit IgG (Invitrogen) or anti-mouse IgG DyLight 800 conjugated (Thermo Scientific), and visualized using an Odyssey infrared imaging system (Li-Cor Biosciences).

A further assay concerns the target T2, SGK1 (Homo sapiens, UniProt O00141).
T2 construct: purchased ProQinase
In words: ProQinase kinase panel. The format is biochemical. The settings on record: read-out: Inh (%) at 1µM, SGK1. On the procedure: (§1) Supplementary Table 1: Kinase selectivity profile of ETP-47037 and ETP-47228 at 1 µM. Selectivity against protein kinases was determined from evaluation of compounds at 1µM in ProQinase’s 24 selected panel that represents the ACG, STE, TKL, TK, CMGC CAMK and CK1 kinase families.

The target in the next assay is T3, FAK (Homo sapiens, UniProt Q05397).
T3 construct: purchased ProQinase
In words: ProQinase kinase panel. The format is biochemical. As to conditions: read-out: Inh (%) at 1µM, FAK. On the procedure:
as §1

Another assay concerns the target T4, SRC (Homo sapiens, UniProt P12931).
T4 construct: purchased ProQinase
In words: ProQinase kinase panel. The format is biochemical. As to conditions: read-out: Inh (%) at 1µM, SRC. On the procedure: as §1

A further assay deals with T5, CHK1 (Homo sapiens, UniProt O14757).
T5 construct: purchased ProQinase
In words: ProQinase kinase panel. The format is biochemical. As to conditions: read-out: Inh (%) at 1µM, CHK1. On the procedure:
as §1

For the next assay, the target named is T6, IKK-beta (Homo sapiens, UniProt O14920).
T6 construct: purchased ProQinase
In words: ProQinase kinase panel. The class given is biochemical. As to conditions: read-out: Inh (%) at 1µM, IKK-beta. On the procedure: as §1

In a further assay the target is T7, RPS6KA1 (Homo sapiens, UniProt Q15418).
T7 construct: purchased ProQinase
In words: ProQinase kinase panel. The format is biochemical. As to conditions: read-out: Inh (%) at 1µM, RPS6KA1. Here is the method:
as §1

A further assay concerns the target T8, B-RAF-V600E (Homo sapiens, UniProt P15056, V600E).
T8 construct: purchased ProQinase
Nature of the assay: ProQinase kinase panel. The format is biochemical. As to conditions: read-out: Inh (%) at 1µM, B-RAF-V600E. Here is the method:
as §1

The target in a further assay is T9, PAK1 (Homo sapiens, UniProt Q13153).
T9 construct: purchased ProQinase
In words: ProQinase kinase panel. As to conditions: read-out: Inh (%) at 1µM, PAK1. The format is biochemical. Here is the method:
as §1

For the next assay, the target named is T10, CK1-alpha1 (Homo sapiens, UniProt P48729).
T10 construct: purchased ProQinase
Nature of the assay: ProQinase kinase panel. The class given is biochemical. The settings on record: read-out: Inh (%) at 1µM, CK1-alpha1. On the procedure:
as §1

The next assay has as its target T11, MEK1 (Homo sapiens, UniProt Q02750).
T11 construct: purchased ProQinase
In words: ProQinase kinase panel. The settings on record: read-out: Inh (%) at 1µM, MEK1. The class given is biochemical. On the procedure: as §1

A further assay addresses T12, DYRK1A (Homo sapiens, UniProt Q13627).
T12 construct: purchased ProQinase
Nature of the assay: ProQinase kinase panel. The class given is biochemical. As to conditions: read-out: Inh (%) at 1µM, DYRK1A. Here is the method:
as §1

In another assay the target is T13, CDK8-CycC (Homo sapiens, UniProt P49336).
T13 construct: purchased ProQinase
Nature of the assay: ProQinase kinase panel. The format is biochemical. The settings on record: read-out: Inh (%) at 1µM, CDK8-CycC. Here is the method:
as §1

The target of another assay is T14, EGF-R (Homo sapiens, UniProt P00533).
T14 construct: purchased ProQinase
In words: ProQinase kinase panel. The format is biochemical. The settings on record: read-out: Inh (%) at 1µM, EGF-R. On the procedure:
as §1

For another assay, the target named is T15, KIT (Homo sapiens, UniProt P10721).
T15 construct: purchased ProQinase
In words: ProQinase kinase panel. The settings on record: read-out: Inh (%) at 1µM, KIT. The class given is biochemical. On the procedure: as §1

Assay [3] relates to aggressive lung cancer in mice. The arrangement: method as in PMID 25971796. The settings on record: mice with aggressive lung cancer; cited from earlier work.
The mark [4] stands for this setting: 1 h, 1 h, read-out: Inhibition pAKT (Ser 473) with regard to DMSO.
Where [5] appears, read: 4 h, 4 h, read-out: Inhibition pAKT (Ser 473) with regard to DMSO.
Setting [6] is: 8 h, 8 h, read-out: Inhibition pAKT (Ser 473) with regard to DMSO.
Where [7] appears, read: 16 h, 16 h, read-out: Inhibition pAKT (Ser 473) with regard to DMSO.
[8] abbreviates: 24 h, 24 h, read-out: Inhibition pAKT (Ser 473) with regard to DMSO.

Read-outs that look alike come from different tables or passages of the source.

What is called IC50 is the concentration needed to halve the response being measured. A lower IC50 goes with inhibition by little substance.

T9 sequence (Q13153 whole entry): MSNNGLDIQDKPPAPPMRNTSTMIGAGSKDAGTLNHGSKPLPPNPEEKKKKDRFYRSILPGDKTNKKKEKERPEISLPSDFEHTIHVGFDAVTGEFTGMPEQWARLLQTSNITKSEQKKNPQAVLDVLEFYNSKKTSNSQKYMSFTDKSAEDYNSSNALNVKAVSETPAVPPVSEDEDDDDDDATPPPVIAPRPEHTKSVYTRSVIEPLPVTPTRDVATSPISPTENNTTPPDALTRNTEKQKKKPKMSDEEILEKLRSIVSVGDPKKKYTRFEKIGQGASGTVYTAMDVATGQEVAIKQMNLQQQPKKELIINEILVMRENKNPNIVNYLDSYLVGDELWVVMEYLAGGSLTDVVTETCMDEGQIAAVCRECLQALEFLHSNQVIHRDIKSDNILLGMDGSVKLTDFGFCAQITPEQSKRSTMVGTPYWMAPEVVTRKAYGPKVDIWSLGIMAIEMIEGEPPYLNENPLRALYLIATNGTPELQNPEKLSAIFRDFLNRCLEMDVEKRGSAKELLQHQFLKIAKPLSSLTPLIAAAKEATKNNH
T4 sequence (P12931 whole entry): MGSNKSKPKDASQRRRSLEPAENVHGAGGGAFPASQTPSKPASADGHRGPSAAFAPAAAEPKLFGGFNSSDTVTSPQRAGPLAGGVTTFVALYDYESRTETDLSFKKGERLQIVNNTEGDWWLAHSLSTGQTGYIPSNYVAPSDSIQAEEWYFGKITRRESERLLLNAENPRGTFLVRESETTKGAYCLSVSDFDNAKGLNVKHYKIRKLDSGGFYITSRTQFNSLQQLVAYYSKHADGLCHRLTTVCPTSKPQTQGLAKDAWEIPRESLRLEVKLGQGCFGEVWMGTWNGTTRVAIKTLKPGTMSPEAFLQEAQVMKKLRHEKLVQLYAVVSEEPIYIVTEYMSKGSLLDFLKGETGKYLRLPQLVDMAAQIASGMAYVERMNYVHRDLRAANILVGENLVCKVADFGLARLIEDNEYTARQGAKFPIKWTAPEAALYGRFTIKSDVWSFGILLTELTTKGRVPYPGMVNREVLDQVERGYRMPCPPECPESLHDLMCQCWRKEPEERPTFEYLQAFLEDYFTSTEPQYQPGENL
T8 sequence (P15056 whole entry V600E): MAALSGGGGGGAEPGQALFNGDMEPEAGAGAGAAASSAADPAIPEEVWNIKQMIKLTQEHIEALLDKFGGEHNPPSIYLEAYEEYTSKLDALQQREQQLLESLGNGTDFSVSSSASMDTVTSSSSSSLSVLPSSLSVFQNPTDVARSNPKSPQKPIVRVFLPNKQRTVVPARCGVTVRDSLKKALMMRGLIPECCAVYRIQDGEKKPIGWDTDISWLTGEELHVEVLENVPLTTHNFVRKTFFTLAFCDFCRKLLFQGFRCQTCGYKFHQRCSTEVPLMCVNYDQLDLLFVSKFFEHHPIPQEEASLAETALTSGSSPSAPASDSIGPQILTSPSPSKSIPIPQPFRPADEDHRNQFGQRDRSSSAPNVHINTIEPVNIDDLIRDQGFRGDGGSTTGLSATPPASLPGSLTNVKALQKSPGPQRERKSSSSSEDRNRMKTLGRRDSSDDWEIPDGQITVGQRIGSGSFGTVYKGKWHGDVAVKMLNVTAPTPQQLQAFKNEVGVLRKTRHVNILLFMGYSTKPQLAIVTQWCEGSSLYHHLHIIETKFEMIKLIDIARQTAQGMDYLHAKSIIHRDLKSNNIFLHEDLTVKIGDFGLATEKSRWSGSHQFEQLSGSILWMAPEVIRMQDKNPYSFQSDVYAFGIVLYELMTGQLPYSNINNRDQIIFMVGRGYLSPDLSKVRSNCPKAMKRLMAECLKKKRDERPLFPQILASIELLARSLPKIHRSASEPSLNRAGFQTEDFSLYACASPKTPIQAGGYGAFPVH
T2 sequence (O00141 whole entry): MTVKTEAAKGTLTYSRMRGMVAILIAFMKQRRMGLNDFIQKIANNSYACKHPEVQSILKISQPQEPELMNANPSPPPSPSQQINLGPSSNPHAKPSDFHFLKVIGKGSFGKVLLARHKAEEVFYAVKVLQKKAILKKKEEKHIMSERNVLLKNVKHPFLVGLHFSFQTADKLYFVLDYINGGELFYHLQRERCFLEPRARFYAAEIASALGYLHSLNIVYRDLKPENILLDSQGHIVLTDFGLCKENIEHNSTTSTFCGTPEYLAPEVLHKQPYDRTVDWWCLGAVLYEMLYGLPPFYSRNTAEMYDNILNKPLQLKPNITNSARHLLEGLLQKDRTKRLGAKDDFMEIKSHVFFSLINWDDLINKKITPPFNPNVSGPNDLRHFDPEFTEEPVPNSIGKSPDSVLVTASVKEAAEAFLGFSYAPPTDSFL
T10 sequence (P48729 whole entry): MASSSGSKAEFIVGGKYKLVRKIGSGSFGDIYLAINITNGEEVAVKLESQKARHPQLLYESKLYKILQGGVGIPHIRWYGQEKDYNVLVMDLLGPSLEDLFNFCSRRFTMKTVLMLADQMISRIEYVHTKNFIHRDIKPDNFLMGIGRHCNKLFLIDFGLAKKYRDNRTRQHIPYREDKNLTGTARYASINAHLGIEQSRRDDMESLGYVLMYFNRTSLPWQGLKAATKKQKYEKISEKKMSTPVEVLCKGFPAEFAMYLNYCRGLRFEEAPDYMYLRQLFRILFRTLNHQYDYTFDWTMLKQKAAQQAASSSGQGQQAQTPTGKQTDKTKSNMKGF
T13 sequence (P49336 whole entry): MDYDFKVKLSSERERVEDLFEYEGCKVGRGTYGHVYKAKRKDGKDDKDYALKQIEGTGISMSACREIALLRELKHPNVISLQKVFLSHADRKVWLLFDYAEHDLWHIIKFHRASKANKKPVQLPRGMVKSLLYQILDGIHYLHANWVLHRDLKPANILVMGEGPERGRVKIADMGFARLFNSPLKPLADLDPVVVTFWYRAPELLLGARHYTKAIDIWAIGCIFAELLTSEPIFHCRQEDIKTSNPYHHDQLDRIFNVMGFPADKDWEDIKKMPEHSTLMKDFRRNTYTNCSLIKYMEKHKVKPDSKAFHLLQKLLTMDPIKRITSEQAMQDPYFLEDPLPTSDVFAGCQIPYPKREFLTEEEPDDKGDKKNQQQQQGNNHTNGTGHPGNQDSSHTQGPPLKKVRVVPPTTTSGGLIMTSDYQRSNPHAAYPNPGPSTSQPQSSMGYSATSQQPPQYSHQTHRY
T13 sequence (P24863 whole entry partner): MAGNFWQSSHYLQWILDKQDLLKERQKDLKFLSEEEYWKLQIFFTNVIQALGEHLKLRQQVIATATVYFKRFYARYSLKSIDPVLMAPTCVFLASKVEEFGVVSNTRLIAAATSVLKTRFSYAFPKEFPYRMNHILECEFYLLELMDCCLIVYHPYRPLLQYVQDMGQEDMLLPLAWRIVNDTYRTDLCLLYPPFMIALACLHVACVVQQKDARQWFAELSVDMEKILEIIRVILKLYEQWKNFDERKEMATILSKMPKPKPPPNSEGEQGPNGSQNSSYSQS
T15 sequence (P10721 26-976): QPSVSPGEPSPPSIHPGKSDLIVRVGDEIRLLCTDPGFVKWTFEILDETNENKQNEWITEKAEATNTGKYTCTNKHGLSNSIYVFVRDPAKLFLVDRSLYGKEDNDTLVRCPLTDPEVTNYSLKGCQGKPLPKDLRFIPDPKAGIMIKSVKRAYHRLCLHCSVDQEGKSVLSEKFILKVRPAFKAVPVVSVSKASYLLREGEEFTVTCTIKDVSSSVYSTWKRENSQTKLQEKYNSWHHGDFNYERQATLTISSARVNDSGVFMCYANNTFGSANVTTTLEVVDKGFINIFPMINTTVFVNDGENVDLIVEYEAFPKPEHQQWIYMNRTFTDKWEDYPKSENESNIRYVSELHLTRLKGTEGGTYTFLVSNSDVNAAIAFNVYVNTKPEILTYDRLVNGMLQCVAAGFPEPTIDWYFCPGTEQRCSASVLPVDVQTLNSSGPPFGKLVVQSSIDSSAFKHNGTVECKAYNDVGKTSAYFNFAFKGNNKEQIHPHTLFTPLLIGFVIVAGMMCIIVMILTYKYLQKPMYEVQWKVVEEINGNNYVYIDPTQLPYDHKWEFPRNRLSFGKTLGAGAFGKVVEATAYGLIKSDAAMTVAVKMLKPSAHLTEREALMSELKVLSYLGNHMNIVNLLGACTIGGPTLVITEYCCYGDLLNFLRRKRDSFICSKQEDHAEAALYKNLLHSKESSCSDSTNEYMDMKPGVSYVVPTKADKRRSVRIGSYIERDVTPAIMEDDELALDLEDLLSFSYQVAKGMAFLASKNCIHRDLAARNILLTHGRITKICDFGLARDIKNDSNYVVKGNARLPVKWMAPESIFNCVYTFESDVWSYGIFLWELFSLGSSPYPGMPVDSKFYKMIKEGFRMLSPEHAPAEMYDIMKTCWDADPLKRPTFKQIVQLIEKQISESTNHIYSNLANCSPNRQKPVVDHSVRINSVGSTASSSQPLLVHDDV
T5 sequence (O14757 whole entry): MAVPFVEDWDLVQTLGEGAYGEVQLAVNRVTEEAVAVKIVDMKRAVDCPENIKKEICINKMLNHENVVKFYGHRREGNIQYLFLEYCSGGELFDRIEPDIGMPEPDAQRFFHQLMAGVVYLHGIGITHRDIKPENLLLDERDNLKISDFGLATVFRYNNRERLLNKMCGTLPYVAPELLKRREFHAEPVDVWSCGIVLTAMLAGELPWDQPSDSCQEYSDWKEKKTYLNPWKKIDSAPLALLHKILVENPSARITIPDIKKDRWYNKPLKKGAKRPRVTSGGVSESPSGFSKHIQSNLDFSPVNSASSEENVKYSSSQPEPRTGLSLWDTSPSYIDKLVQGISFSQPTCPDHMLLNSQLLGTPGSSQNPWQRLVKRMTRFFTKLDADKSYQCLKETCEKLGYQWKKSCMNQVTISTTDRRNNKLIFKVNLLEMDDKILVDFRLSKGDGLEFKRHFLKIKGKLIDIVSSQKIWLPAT

Consider `Cc1cnc2c(N3CCOCC3)nc(-c3ccc(NC(=O)Nc4ccc(C(=O)N5CCN(C)CC5)cc4)cc3)cn12` [ETP-47228], for which half-maximal inhibition against mTOR (FRAP1) (internal data) (IC50) required 443 nM. For the same compound, the “TRF1 protein levels in nuclear extracts” value in assay [1] is “significantly decreased”. In assay [2], the “p-AKT S473 inhibition (in words)” value is “strongly inhibited”. For the same compound, the inhibition at 10 µM is 35% in assay [2] (read-out: Decrease of p-AKT S473 inhibition after 24 h as compared to 1-h treatment); 90% in assay [2] (setting [4]); 93% in assay [2] (setting [5]); 78% in assay [2] (setting [6]); 66% in assay [2] (setting [7]); 59% in [2] (setting [8]). Also, the inhibition at 1 µM at SGK1 is 0.5%; on FAK, -7.5%; on SRC it was 5%; at CHK1, -11.5%; on IKK-beta, -10%; at RPS6KA1 it was -1.5%. Further, the inhibition at 1 µM was 11.5% at B-RAF-V600E; 1% at PAK1; 2% on CK1-alpha1; -3% on MEK1; 4% at DYRK1A; 1% on CDK8-CycC. The inhibition at 1 µM on EGF-R was 0.5%; on KIT, 6.5%.

On to `CS(=O)(=O)N1CCN(Cc2cc3c(N4CCOCC4)nc(-c4cnc(N)nc4)cn3n2)CC1` [ETP-47037], for which, in [3], the “Telomere TRF1 foci in vivo” value is reported as “significantly decreased”. Besides, the “Telomeric DNA damage in vivo” value in [3] is reported as “induced telomeric DNA damage”. The “Tumor growth as compared to non-treated mice” value in assay [3] was “blocked tumor growth”. This compound also returned a 50% inhibitory concentration (IC50) against mTOR (FRAP1) (as given in the text) of 1700 nM. Also, the “TRF1 protein levels in nuclear extracts” value in [1] is on record as “significantly decreased”. The “p-AKT S473 inhibition (in words)” value in [2] was “strongly inhibited”. For the same compound, the inhibition at 10 µM in [2] (setting [4]) is 92%; in [2] (setting [5]), 97%; in assay [2] (setting [6]), 96%; in assay [2] (setting [7]), 97%; in [2] (setting [8]), 94%. In addition, the inhibition at 1 µM at SGK1 is 0.5%; at FAK, 14.5%; at SRC, 26%; at CHK1 it was 15.5%; on IKK-beta, 1%; at RPS6KA1 it was -4.5%. For the same compound, the inhibition at 1 µM on B-RAF-V600E is 6.5%; at PAK1 it was -3.5%; on CK1-alpha1 it was -6%; on MEK1, -15%; on DYRK1A it was -1%; on CDK8-CycC, -4.5%. Also, the inhibition at 1 µM at EGF-R came to 22.5%; at KIT it was 9%.
